One experiment deals with T cells. The experiment in a line: T cell activation detection by flow cytometry in stimulated human whole blood. Type of experiment: cell-based. Here is the method: Human whole blood can be obtained and diluted 1:5 in RPMI media and stimulated with 0, 20, 40, 60, 80, and 100 μg/mL (of blood) of phytohemagglutinin (PHA) for about 20 hours at 37° C. and 5% CO2. In parallel, blood samples can be treated with a buffer (no PHA) as a stimulation control. Following the stimulation period, blood samples can be stained with fluorescently-labeled antibodies to T cell markers, including CD4, CD25, CD69, and CD71. Fluorescently-labeled (FITC, APC, PE, PerCP-Cy5, and APC-Cy7) antibodies can be mixed with 100 μIL of PHA-stimulated blood samples or with unstimulated blood control samples in parallel, and each of the samples were can then be incubated, protected from light, for a minimum of 30 minutes. Following incubation with the labeled antibodies, the samples can be washed with BSA Stain Buffer. In parallel, samples can be separately incubated with isotype control antibodies. Following washing, red blood cells can be lysed with 1 mL of 1× Pharm Lyse™ by incubation with this reagent for 15 minutes. Samples can be centrifuged, and washed again with BSA Stain Buffer. All samples can be fixed and permeabilized with eBiosciences Fix and Perm solutions according to the manufacturer's instructions. FoxP3 can be added to the fixed/permeabilized samples, and the samples can be incubated for a minimum of 30 minutes. Samples can be washed with BSA Stain Buffer, and 1 μL of Violet Live/Dead is added to the samples and incubated, protected from light, for a minimum of 15 minutes. Samples and controls can be run through a FACSAria III flow cytometer. The flow cytometer can be calibrated, and compensation can be performed according to standard requirements and procedures. Cells can be suspended at a density of 1,000,000 cells per mL in a tube, and run through the flow cytometer for analysis. One hundred thousand events can be collected per analysis. T cells can be identified by their forward (FSC) and side (SSC) scatter profiles, and gated accordingly. T cells can further be analyzed according to the T cell marker profiles (Fox3, CD4, CD25, cD69, and CD71).

Experiment [1] deals with leukocytes and CD3+ lymphocytes. The experiment can be described thus: Detection of leukocyte and lymphocyte activation markers involved in allergic response by flow cytometry. The format is cell-based, Human. On the procedure:
Human whole blood was obtained from a normal control individual and from an individual with a severe allergy to Amoxicillin. The blood was diluted 1:5 in RPMI media, then stimulated with either 50 μM Amoxicillin for 20 minutes to 1 hour at 37° C. and 5% CO2. In parallel, blood samples were treated with a buffer as a stimulation control, or with 50 μg/mL of the potent polymorphonuclear leukocyte (PMN) chemotactic factor fMLP (N-Formylmethionyl-leucyl-phenylalanine).
Following the stimulation period, blood samples were stained with fluorescently-labeled antibodies to leukocyte activation markers CD294, CD203a or lymphocyte activation markers CD71 and CD69 with the use of CD3 to identify CD3+ lymphocytes. Each of the samples were then incubated, protected from light, for a minimum of 30 minutes. Following incubation with the labeled antibodies, the samples were washed with BSA Stain Buffer. In parallel, samples were separately incubated with isotype control antibodies.
Following washing, red blood cells were lysed with 1 mL of 1× Pharm Lyse™ by incubation with this reagent for 15 minutes. Samples were centrifuged, and washed again with BSA Stain Buffer.
Samples and controls were then run through a FACS CANTO flow cytometer. The flow cytometer was calibrated, and compensation was performed according to standard requirements and procedures. Cells were suspended at a density of 1,000,000 cells per mL in a tube, and run through the flow cytometer for analysis. One hundred thousand events were collected per analysis.
Live cells were gating based on their low staining with FVS450. Lymphocytes and leukocytes were identified by their forward (FSC) and side (SSC) scatter profiles, and gated accordingly. CD+ lymphocytes were then further analyzed according to activation markers CD69 and CD71.

Setting [2] is: human whole blood diluted 1:5 in RPMI, PHA stimulation about 20 hours at 37° C.
[3] abbreviates: increasing amounts of PHA, 0 to 100 micrograms over 20 microgram increments.
[4] abbreviates: blood from allergic donor (highly sensitive to Amoxicillin), 50 μM, 20 minutes to 1 hour.
[5] abbreviates: blood from non-allergic donor, 50 μM, 20 minutes to 1 hour.
Where [6] appears, read: fMLP-stimulated blood samples, 50 μg/mL.

In the case of Phytohemagglutinin [PHA], the “stimulation of normal whole blood CD71, CD69, FoxP3 and CD25+ cells” value in the experiment with T cells (20-100 μg/mL PHA) is on record as “stimulated”. Further, in the experiment with T cells (setting [2]), the “CD4 expression on the T cells” value is “substantial increase”; the “expression of CD25, CD69, CD71, and FoxP3 on the T cells” value was “significant increase”. In the experiment with T cells (increasing amounts of PHA, 0 to 100 micrograms), the “level of CD69 expression on CD4+ cells” value is “enhancement”. Also, in the experiment with T cells (setting [3]), the “level of CD71 expression on CD4+ cells” value was “enhancement” and the “level of FoxP3 expression on CD4+ cells” value is given as “enhancement”.
Turning to `CC1(C)S[C@@H]2[C@H](NC(=O)[C@H](N)c3ccc(O)cc3)C(=O)N2[C@H]1C(=O)O` [Amoxicillin], in experiment [1] (setting [4]), the “expression of CD69 and CD71 on CD3+ lymphocytes” value was “increased expression”; the “expression of CD294 and CD203a on leukocytes” value is recorded as “increased expression”. In addition, in experiment [1] (setting [5]), the “CD71 or CD69 on lymphocytes” value was “did not show an increase”; the “CD294 and CD203a on leukocytes” value was “did not show an increase”.
Consider `CSCC[C@H](NC=O)C(=O)N[C@@H](CC(C)C)C(=O)N[C@@H](Cc1ccccc1)C(=O)O` [fMLP, N-Formylmethionyl-leucyl-phenylalanine], for which, in experiment [1] (setting [6]), the “CD294 and CD203a expression on leukocytes” value was “substantial increase”; the “expression of CD71 and CD69 on lymphocytes” value is listed as “significant increase”.
